Source: patent publication US20240209036A1, “PEPTIDES AND METHODS OF USE” (priority 2021, published 2024)
Several values for one entry are separate records, joined by “and”; a condition that tells them apart may be missing. Equal values may be shown once. Ends that are not written are not given here.

How the values were obtained:
[1] = test system: cecal ligation and puncture (CLP) rat model of intestinal necrosis; experiment: Cecal ligation and puncture (CLP) survival model; assay type: in vivo; conditions: for survival, multi-dose regimen: CLP rats, 40 mg/kg at 0.5, 24, 48 and 72 hours after surgery
Procedure: The previously established CLP model was utilized with modifications. Male Long-Evans rats (250-300 grams) were induced using 5% isoflurane with oxygen and anesthesia was maintained by isoflurane delivered via nose cone at 1.5-2% with oxygen. Adequate anesthesia was confirmed with a toe pinch. The surgical area (lower abdominal quadrants) was shaved, cleaned with 10% iodine and subsequently cleaned with 70% ethanol for a total of three times. For pain management, buprenorphine-SR (1 mg/kg) was given subcutaneously pre-op. For the surgical procedure, animals were in the supine position with their heads oriented away from the operator. After placing a sterile drape, a longitudinal midline incision (approximately 3-4 cm) was made with a sterile scalpel. After the initial incision, small scissors were used to enter the peritoneal cavity. The linea alba of the abdominal musculature was dissected away for intermuscular incision of fascial and peritoneal layers. The cecum was located and exteriorized, the remainder of the bowel was left in the peritoneal cavity. The mesentery of the cecum was dissected away with care taken to avoid damage to the cecal branch of the ileocecal artery and avoid bleeding complications. The cecum was ligated at 75% using sterile 3-0 non-absorbable suture. The cecum was perforated twice by through-and-through punctures using a sterile 18-gauge needle midway between the ligation and the tip of the cecum in a mesenteric-to-antimesenteric direction. The cecum was relocated into the abdominal cavity. The peritoneum was closed using 4-0 non-absorbable sutures and the skin was closed with sterile metallic wound clips. The animals received 5 mL of prewarmed (37° C.) normal saline subcutaneously for recovery. […] The peptide, consisting of the amino acid sequence […] (SEQ ID NO: 2) with a monodisperse, 24mer polyethylene glycol (PEG) tail, was manufactured by PolyPeptide Group (San Diego, CA) to >95% purity as verified by HPLC and mass spectrometry analysis. Lyophilized RLS-0071 was solubilized in 0.05 M Histidine buffer and pH adjusted to 6.5. […] Animals were monitored every 30 minutes for at least two hours post-surgery. Once bright, alert, and responsive, the animals were placed back into their home cage. A quantitative assessment of morbidity was conducted on the animals twice a day for the duration of the study. (Shrum, B., Anantha, R. V., Xu, S. X. et al. A robust scoring system to evaluate sepsis severity in an animal model. BMC Res Notes 7, 233 (2014). https://doi.org/10.1186/1756-0500-7-233). Scoring criteria included appearance, level of consciousness, activity, response to stimulus, eyes open vs. closed, respiration rate and respiration quality. […] The animals were subsequently monitored at a minimum of twice/day. […]

[2] = test system: free DNA in plasma (biomarker for NETs); experiment: Plasma free DNA by PicoGreen in CLP rats; assay type: in vivo, rat; conditions: single dose RLS-0071, 24 hours post-surgery
Procedure: (§1) Blood samples were collected before surgery (pre-bleed) and 24 hours after surgery. Plasma was isolated from the blood and analyzed for free DNA concentration and cytokines levels as described below.
Free DNA was measured by PicoGreen in rat plasma samples as previously described Briefly, plasma samples were diluted in 10 mM Tris-HCl, 1 mM EDTA, pH 8.0 (TE) buffer and 50 uL of each sample was added to the wells along with 50 uL of a 1:200 dilution of PicoGreen (Life Technologies, Carlsbad, CA, USA) and incubated at room temperature for 10 minutes, protected from light. A DNA standard curve was prepared in TE buffer. The fluorescence was then read at an excitation wavelength of 485 nm and an emission wavelength of 520 nm using a BioTek microplate reader. All free DNA measurements were done in triplicate.

[3] = test system: IL-6; experiment: Plasma IL-6 ELISA in CLP rats; assay type: in vivo, rat; conditions: single dose RLS-0071, 24 hours post-surgery
Procedure: as §1
The Rat IL-6 ELISA was purchased from R&D Systems. Plasma samples from experimental animals were run according to the manufacturer's instructions. Briefly, diluted rat plasma samples were added to wells pre-coated with capture IL-6 antibodies overnight. The plate was blocked for 60 min at room temperature with 1% BSA. 100 uL of plasma samples (diluted 1:4) or standards was added to the plate and incubated at room temperature for 2 hrs, then any unbound components were removed by washing. Next, 100 μL of detection IL-6 antibody (diluted 1:60) was added and incubated for 2 hrs at room temperature and washed. Next, 100 μL of streptavidin-horseradish peroxidase (HIRP) conjugate (diluted 1:40) was added and incubated in the dark for 20 minutes at room temperature. Following washing, 100 μL of 3,3′,5,5′-tetramethylbenzidine (TMB) substrate was added for approximately 5 minutes at room temperature. The reaction was stopped with the addition of 100 μL of sulfuric acid and absorbance measured at 450 nm using a BioTek microplate reader. Sample concentrations were calculated using an IL-6 standard curve made with 1:2 serial dilutions.

[4] = test system: complement system; conditions: previously demonstrated in vitro assays; cited from earlier work

Row | Substance | survival, multi-dose regimen [1] | survival ([1]; male Long-Evans rats, 75% CLP, single dose 40 mg/kg i.v. 30 minutes after surgery, assessed up to 5 days, 40 mg/kg) | increase in survival compared to no-rescue treatment group ([1]; single dose 40 mg/kg i.v. 30 minutes after surgery) | level of free DNA in blood compared to animals not receiving treatment [2] | IL-6 level in blood compared with no-rescue-intervention animals [3] | inhibition of the complement system [4]
1 | IALILEP(Sar)CCQERAA (IALILEPXCCQERAA; sarcosine at position 8; MOD_RES (8)..(8) Sarcosine) [RLS-0088, PA peptide with isoleucine at position 8 replaced by sarcosine] | increase in survival | – | – | – | – | –
2 | IALILEPICCQERAA-PEG24 (IALILEPICCQERAA-dPEG24; cysteine pairing not given here) [RLS-0071, 15 amino acid peptide with a C-terminal monodisperse 24-mer PEGylated moiety] | significant increase in survival | 80% and 50% | 2.5 fold | reduction in the level of free DNA | reduction in IL-6 | strong inhibition of the complement system
